Assay results reported in patent US20240025887A1, “THIENYL AND CYCLOALKYL AMINOPYRIMIDINE COMPOUNDS AS INHIBITORS OF NUAK KINASES, COMPOSITIONS AND USES THEREOF” (Ontario Institute for Cancer Research (OICR), priority 2021, published 2024).

Assays:
Assay type in all cases: biochemical
[1] = biological target: T1, Aurora A (Homo sapiens, UniProt O14965); assay: Aurora A counter screen; settings: read-out: AUR-A (IC50)
T1 sequence (O14965 1-403): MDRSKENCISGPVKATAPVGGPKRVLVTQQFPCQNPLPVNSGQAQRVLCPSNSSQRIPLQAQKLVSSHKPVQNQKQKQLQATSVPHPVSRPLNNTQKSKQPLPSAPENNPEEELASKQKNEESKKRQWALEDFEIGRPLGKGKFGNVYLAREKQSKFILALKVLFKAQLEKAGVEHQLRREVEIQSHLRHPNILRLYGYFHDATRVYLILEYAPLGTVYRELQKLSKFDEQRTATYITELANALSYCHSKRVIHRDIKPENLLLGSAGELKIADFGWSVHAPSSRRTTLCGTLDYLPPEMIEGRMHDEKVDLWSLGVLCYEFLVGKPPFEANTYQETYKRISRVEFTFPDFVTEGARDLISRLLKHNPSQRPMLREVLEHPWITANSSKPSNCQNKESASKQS
Experimental: (§1) To identify small molecule NUAK inhibitors, a biochemical NUAK2 enzymatic assay was outsourced to Eurofins. This assay was done radiometrically using full-length, recombinant enzyme. NUAK2 (h) was incubated with 8 mM MOPS pH 7.0, 0.2 mM EDTA, 300 μM […], 10 mM magnesium acetate and […] (specific activity and concentration as required). The reaction was initiated by the addition of the Mg/ATP mix. After incubation for 40 minutes at room temperature, the reaction was stopped by the addition of phosphoric acid to a concentration of 0.5%. 10 μL of the reaction was then spotted onto a P30 filter mat and washed four times for 4 minutes in 0.425% phosphoric acid and once in methanol prior to drying and scintillation counting. Compounds were routinely counter screened against Aurora A and NUAK1. The results are shown in Table 1 where IC50s are reported the following ranges: A: 0.1-10 nM; B: 11-100 nM; C: 101-1000 nM; D: >1000 nM for the compounds of Formula I)

[2] = biological target: T2, NUAK2 (h) (Homo sapiens, UniProt Q9H093); assay: NUAK2 enzymatic assay (radiometric, Eurofins); settings: radiometric, full-length recombinant enzyme
T2 construct: This assay was done radiometrically using full-length, recombinant enzyme; purchased Eurofins
T2 sequence (Q9H093 1-628): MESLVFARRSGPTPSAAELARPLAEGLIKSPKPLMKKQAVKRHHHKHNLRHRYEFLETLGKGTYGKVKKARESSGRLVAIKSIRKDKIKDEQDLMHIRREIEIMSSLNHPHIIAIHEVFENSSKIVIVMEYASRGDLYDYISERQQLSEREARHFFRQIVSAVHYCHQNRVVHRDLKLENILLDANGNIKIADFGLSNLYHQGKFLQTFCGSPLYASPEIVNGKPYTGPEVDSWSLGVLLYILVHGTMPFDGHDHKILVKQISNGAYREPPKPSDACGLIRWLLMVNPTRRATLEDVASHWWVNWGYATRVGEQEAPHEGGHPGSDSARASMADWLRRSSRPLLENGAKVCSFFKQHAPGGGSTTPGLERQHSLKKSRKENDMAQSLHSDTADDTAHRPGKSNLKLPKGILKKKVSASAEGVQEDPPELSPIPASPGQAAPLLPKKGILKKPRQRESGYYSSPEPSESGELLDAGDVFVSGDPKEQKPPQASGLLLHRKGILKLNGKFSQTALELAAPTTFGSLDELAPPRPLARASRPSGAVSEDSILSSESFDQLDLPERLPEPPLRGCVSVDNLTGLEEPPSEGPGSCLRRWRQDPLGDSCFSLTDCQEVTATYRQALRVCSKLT
Experimental: as §1

[3] = biological target: T3, NUAK1 (Homo sapiens, UniProt O60285); assay: NUAK1 counter screen
T3 sequence (O60285 1-661): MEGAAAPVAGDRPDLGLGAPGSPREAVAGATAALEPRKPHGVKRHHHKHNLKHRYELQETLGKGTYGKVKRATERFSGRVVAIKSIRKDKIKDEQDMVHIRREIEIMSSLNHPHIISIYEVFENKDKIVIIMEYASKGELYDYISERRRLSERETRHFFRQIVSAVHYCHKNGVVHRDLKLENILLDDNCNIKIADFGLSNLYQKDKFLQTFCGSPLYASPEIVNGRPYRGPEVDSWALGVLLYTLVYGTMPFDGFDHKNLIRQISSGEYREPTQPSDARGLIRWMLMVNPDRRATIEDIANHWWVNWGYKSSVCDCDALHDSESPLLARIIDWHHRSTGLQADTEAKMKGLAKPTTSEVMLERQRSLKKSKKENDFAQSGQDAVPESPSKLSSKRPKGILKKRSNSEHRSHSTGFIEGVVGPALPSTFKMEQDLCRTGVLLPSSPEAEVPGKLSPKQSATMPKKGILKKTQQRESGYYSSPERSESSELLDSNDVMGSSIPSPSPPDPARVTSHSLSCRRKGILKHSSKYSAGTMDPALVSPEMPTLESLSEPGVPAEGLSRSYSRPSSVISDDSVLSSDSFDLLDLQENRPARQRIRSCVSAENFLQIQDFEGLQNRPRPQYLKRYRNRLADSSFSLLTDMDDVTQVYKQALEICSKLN
Experimental: as §1

| SMILES | IC50 [1] [nM] | IC50 [2] [nM] | IC50 [3] [nM] |
| --- | --- | --- | --- |
| C[C@@H]1CN(c2ccc(Nc3ncc(Cl)c(Nc4ccsc4C(N)=O)n3)c(OC(F)F)c2)C[C@H](C)N1C [Compound I-8, 3-((5-chloro-2-((2-(difluoromethoxy)-4-((3R,5S)-3,4,5-trimethylpiperazin-1-yl)phenyl)amino)pyrimidin-4-yl)amino)thiophene-2-carboxamide] | 11 to 100 | 0.1 to 10 | 0.1 to 10 |
| CN1CCN(c2ccc(Nc3ncc(Cl)c(N[C@@H]4CCCC[C@@H]4C(N)=O)n3)c(C(F)(F)F)c2)CC1 [Compound I-85, (1S,2R)-2-((5-chloro-2-((4-(4-methylpiperazin-1-yl)-2-(trifluoromethyl)phenyl)amino)pyrimidin-4-yl)amino)cyclohexane-1-carboxamide] | > 1000 | 11 to 100 | 101 to 1000 |
| CN1CCN(C2CCN(c3ccc(Nc4ncc(Cl)c(N[C@@H]5CCC[C@@H]5C(N)=O)n4)c(OC(F)F)c3)CC2)CC1 [Compound I-83, (1S,2R)-2-((5-chloro-2-((2-(difluoromethoxy)-4-(4-(4-methylpiperazin-1-yl)piperidin-1-yl)phenyl)amino)pyrimidin-4-yl)amino)cyclopentane-1-carboxamide] | 101 to 1000 | 11 to 100 | 11 to 100 |
| CN1CCN(c2ccc(Nc3ncc(F)c(Nc4ccsc4C(N)=O)n3)c(OC(F)F)c2)CC1 [Compound I-37, 3-((2-((2-(difluoromethoxy)-4-(4-methylpiperazin-1-yl)phenyl)amino)-5-fluoropyrimidin-4-yl)amino)thiophene-2-carboxamide] | 101 to 1000 | 11 to 100 | 11 to 100 |
| C[C@@H]1CN(c2ccc(Nc3ncc(Cl)c(Nc4sccc4C(N)=O)n3)c(OC(F)F)c2)C[C@H](C)N1C [Compound I-11, 2-((5-chloro-2-((2-(difluoromethoxy)-4-((3R,5S)-3,4,5-trimethylpiperazin-1-yl)phenyl)amino)pyrimidin-4-yl)amino)thiophene-3-carboxamide] | 101 to 1000 | 0.1 to 10 | 11 to 100 |
| CN1CCN(C2CCN(c3ccc(Nc4ncc(C#N)c(Nc5ccsc5C(N)=O)n4)c(OC(F)F)c3)CC2)CC1 [Compound I-80, 3-((5-cyano-2-((2-(difluoromethoxy)-4-(4-(4-methylpiperazin-1-yl)piperidin-1-yl)phenyl)amino)pyrimidin-4-yl)amino)thiophene-2-carboxamide] | 101 to 1000 | 11 to 100 | 11 to 100 |
| CC(C)(C)N1CCN(C2CCN(c3ccc(Nc4ncc(C(F)(F)F)c(Nc5ccsc5C(N)=O)n4)c(OC(F)F)c3)CC2)CC1 [Compound I-79, 3-((2-((4-(4-(4-(tert-butyl)piperazin-1-yl)piperidin-1-yl)-2-(difluoromethoxy)phenyl)amino)-5-(trifluoromethyl)pyrimidin-4-yl)amino)thiophene-2-carboxamide] | 101 to 1000 | 11 to 100 | 11 to 100 |
| NC(=O)c1ccsc1Nc1nc(Nc2ccc(N3CCNCC3)cc2OC(F)F)ncc1Cl [Compound I-2, 2-((5-chloro-2-((2-(difluoromethoxy)-4-(piperazin-1-yl)phenyl)amino)pyrimidin-4-yl)amino)thiophene-3-carboxamide] | > 1000 | 11 to 100 | 11 to 100 |
| NC(=O)c1sccc1Nc1nc(Nc2ccc(N3CCC(N4CCCC4)CC3)cc2OC(F)F)ncc1Cl [Compound I-48, 3-((5-chloro-2-((2-(difluoromethoxy)-4-(4-(pyrrolidin-1-yl)piperidin-1-yl)phenyl)amino)pyrimidin-4-yl)amino)thiophene-2-carboxamide] | 11 to 100 | 0.1 to 10 | 0.1 to 10 |
| Cc1csc(Nc2nc(Nc3ccc(N4CCN(C)CC4)cc3OC(F)F)ncc2Cl)c1C(N)=O [Compound I-15, 2-((5-chloro-2-((2-(difluoromethoxy)-4-(4-methylpiperazin-1-yl)phenyl)amino)pyrimidin-4-yl)amino)-4-methylthiophene-3-carboxamide] | 101 to 1000 | 11 to 100 | 11 to 100 |
| NC(=O)c1ccsc1Nc1nc(Nc2ccc(N3CCN(CC(F)(F)F)CC3)cc2OC(F)F)ncc1Cl [Compound I-34, 2-((5-chloro-2-((2-(difluoromethoxy)-4-(4-(2,2,2-trifluoroethyl)piperazin-1-yl)phenyl)amino)pyrimidin-4-yl)amino)thiophene-3-carboxamide] | 101 to 1000 | 101 to 1000 | 101 to 1000 |
| CN1CCN(c2ccc(Nc3ncc(Cl)c(Nc4ccsc4C(N)=O)n3)c(OC(F)(F)F)c2)CC1 [Compound I-10, 3-((5-chloro-2-((4-(4-methylpiperazin-1-yl)-2-(trifluoromethoxy)phenyl)amino)pyrimidin-4-yl)amino)thiophene-2-carboxamide] | > 1000 | 0.1 to 10 | 11 to 100 |
| C[C@H]1CN(c2ccc(Nc3ncc(Cl)c(Nc4sccc4C(N)=O)n3)c(OC(F)F)c2)CCN1C [Compound I-23, (S)-2-((5-chloro-2-((2-(difluoromethoxy)-4-(3,4-dimethylpiperazin-1-yl)phenyl)amino)pyrimidin-4-yl)amino)thiophene-3-carboxamide] | 101 to 1000 | 11 to 100 | 11 to 100 |
| NC(=O)c1sccc1Nc1nc(Nc2ccc(N3CCOCC3)cc2OC(F)F)ncc1Cl [Compound I-24, 3-((5-chloro-2-((2-(difluoromethoxy)-4-morpholinophenyl)amino)pyrimidin-4-yl)amino)thiophene-2-carboxamide] | 11 to 100 | 11 to 100 | 11 to 100 |
| C[C@H]1CN(c2ccc(Nc3ncc(Cl)c(Nc4ccsc4C(N)=O)n3)c(OC(F)F)c2)CCN1C [Compound I-21, (S)-3-((5-chloro-2-((2-(difluoromethoxy)-4-(3,4-dimethylpiperazin-1-yl)phenyl)amino)pyrimidin-4-yl)amino)thiophene-2-carboxamide] | 11 to 100 | 0.1 to 10 | 0.1 to 10 |
| COc1cnc(Nc2ccc(N3CCN(C)CC3)cc2OC(F)F)nc1Nc1ccsc1C(N)=O [Compound I-81] | – | 11 to 100 | 101 to 1000 |
| CN1CCN(C2CCN(c3ccc(Nc4ncc(Cl)c(Nc5sccc5C(N)=O)n4)c(OC(F)F)c3)CC2)CC1 [Compound I-74, 2-((5-chloro-2-((2-(difluoromethoxy)-4-(4-(4-methylpiperazin-1-yl)piperidin-1-yl)phenyl)amino)pyrimidin-4-yl)amino)thiophene-3-carboxamide] | > 1000 | – | 11 to 100 |
| CNC(=O)c1sccc1Nc1nc(Nc2ccc(N3CCN(C)CC3)cc2C(F)(F)F)ncc1Cl [Compound I-59, 3-((5-chloro-2-((4-(4-methylpiperazin-1-yl)-2-(trifluoromethyl)phenyl)amino)pyrimidin-4-yl)amino)-N-methylthiophene-2-carboxamide] | > 1000 | 11 to 100 | – |
